Read-outs that look alike come from different tables or passages of the source.
Key:
[1] = free state; cited from earlier work
[2] = system: STZ-induced diabetic rats; conditions: for blood glucose level: 75 mg/kgbw intraperitoneal once every five days
Protocol: Healthy adult male albino Rattus norvegicus Wistar rats, weighing 170-200 g were procured from Sri Raghavendra Enterprises, Bangalore, Karnataka, India. Studies were conducted in accordance with the guidance for the care and standard experimental animal ethical protocols. Animals were acclimated for a week, maintained at room temperature of 25±2° C. with 12-h dark-light cycle and given tap water and a standard rodent pellet diet ad libitum.
Six (6) groups with six rats each were used. Group I consisted of control animals and diabetes was induced in 12 hour fasted rats in Groups II-VI by a single intraperitoneal 60 mg/kgbw dose of STZ dissolved in freshly prepared 0.1 mol/L citrate buffer (pH 4.5). Blood samples obtained by sequential snipping of the tail and blood glucose levels measured using an ACCU-CHECK® glucometer on a daily basis. […] Group II became the positive control.
The dose-response of the drug was monitored for a period of 30 and 90 days using differential grades of drug at doses of 1, 10, 25, 50, 75, and 100 mg/kgbw administered once every five days. On the fifth day after the first administration, blood was collected and blood glucose levels measured using an ACCU-CHECK® glucometer. Subsequently each group was given its respective second and subsequent doses through intraperitoneal injection.
(§1) The following values were determined spectrophotometrically: (a) daily blood glucose levels (via Accu-check glucometer kit, Roche Diagnostics India); (b) hepatic glycogen (see Seifter et al., (1950) Arch Biochem 25(1):191-200); (c) glycosylated hemoglobin (see Sudhakar and Pattabiraman (1981) Clin Chim Acta 109:267-274); (d) blood urea nitrogen (BUN); (e) serum creatinine (see Hare (1950) Proc Soc Exp Biol Med 74:148-151); and (f) hepatic enzymes (AST, ALT) (see Reitman and Frankel (1957) Am J Clin Pathol 28:56-63).
(§2) Biostatistical analysis was conducted using SPSS 20.0 software. Analysis of variance (one-way ANOVA) was performed with the Tukey HSD post hoc test.

[3] = system: STZ induced diabetic mice
Protocol: Streptozotocin (STZ; 2-deoxy-2-(3-methyl-3-nitrosoureido)-D-glucopyranose), a diabetogenic agent having the ability to induce pancreatic β-cell toxicity, is one of the chemicals used worldwide to induce diabetes in a simple and convenient method.
Adult albino mice, Mus musculus, three months old, weighing 30±5 g were procured from Sri Raghavendra Enterprises, Bangalore and acclimatized to laboratory conditions (12:12 hr dark/light, 25±2° C.) for one week. During acclimatization and thereafter, mice were maintained on standard rodent pellet and tap water ad libitum in accordance with ethical guidelines for animal care and experimentation.
Six (6) groups with six mice each were used. […] Group II became the positive control. […] On the fifth day after the first administration, blood was collected by tail pricking and blood glucose levels measured using an ACCU-CHECK® glucometer on a daily basis. Subsequently each group was given its respective second and subsequent doses through intraperitoneal injection.

[4] = system: STZ-induced diabetic rats; conditions: for blood glucose levels: 100 mg/kgbw oral once every five days
Protocol: as §1, §2
The dose-response of the drug was monitored for a period of 30 and 90 days using drug doses of 100 and 200 mg/kgbw administered once every five days. Spectrophotometric measurements and statistical analysis were obtained as in Example 2.

Compound: O=C(O)c1cccc(C(=O)O)n1 [dipicolinic acid, Pyridine-2,6-dicarboxylic acid]
- toxicity [1]: nontoxic

Compound: (Diaqua)(2,6-pyridine diacetyl-carboxylato)oxovanadium(IV) [Complex 1]
- blood glucose level ([2]; after 30 days): 135 mg/dL
- blood glucose level ([2]; three months (90 days), P<0.05): 118.7 mg/dL
- insulin levels ([2]; 75 mg/kgbw intraperitoneal, compared to the control (FIG. 24)): significantly reducing insulin levels as compared to the control
- glycogen level ([2]; 75 mg/kgbw intraperitoneal, day 30, hepatic glycogen): 2.01 mg/g tissue
- glycogen level ([2]; 75 mg/kgbw intraperitoneal, day 90, hepatic glycogen): 2.00 mg/g tissue
- hyperglycemic condition ([3]; 250 mg/kgbw intraperitoneal, 30 days, data not shown): reduced the hyperglycemic condition in a steady state for a period of 30 days
- blood glucose level ([3]; 250 mg/kgbw intraperitoneal, multiple doses once every 5 days): stable and sustainable blood glucose level throughout the study
- blood glucose level ([3]; the other doses (50, 150, 300 mg/kgbw) intraperitoneal): irregularity in maintaining the reduced levels
- blood glucose levels ([4]; day 30): 108 mg/dL
- blood glucose levels ([4]; day 90): 102 mg/dL
- glycogen levels ([4]; oral (FIG. 18)): significant effect on increasing the glycogen levels
- insulin levels ([4]; oral, compared to the control (FIG. 25)): significant reduction in insulin levels as compared to the control

From patent publication US10953042B2, “Vanadium insulin-mimetics, methods of preparation, and methods for treatment of diabetes” (The University of Trinidad and Tobago, priority 2017, dated 2021)
